Test results reported in PMC4001449, “Thienoquinolines as Novel Disruptors of the PKCε/RACK2 Protein–Protein Interaction” (Journal of Medicinal Chemistry, 2014).

How the values were obtained:
[1] = tested on: 109 different protein kinases; assay: Screen of 109 kinases (Dundee); type: biochemical; details: 25 μM solution; many kinases
[2] = tested on: HeLa-HLR cells; assay: Cell proliferation (SRB assay), HeLa-HLR; type: cell-based; details: 50 μM, 72 h
Description: HeLa cells containing a tetracycline/doxycycline-inducible constitutively active PKCε were described previously.[26] A PathDetect HeLa HLR cell line was obtained from Agilent, Technologies, Wokingham, U.K. PC-3 prostate adenocarcinoma cells were obtained from Dr. Helmut Klocker, Department of Urology, Innsbruck Medical University. For cell proliferation HeLa HLR and PC-3 cells were seeded at ∼10 000 cells per well in 96-well plates. After 4 h various concentrations of 8 were added and left for 72 h. Cell proliferation was determined by the SRB assay.[35]

[3] = biological target: RSK2 (Homo sapiens, UniProt P51812); assay: Kinase profiling (Dundee), RSK2; type: biochemical; details: 25 μM solution
Sequence of RSK2 (P51812 whole entry, species assumed): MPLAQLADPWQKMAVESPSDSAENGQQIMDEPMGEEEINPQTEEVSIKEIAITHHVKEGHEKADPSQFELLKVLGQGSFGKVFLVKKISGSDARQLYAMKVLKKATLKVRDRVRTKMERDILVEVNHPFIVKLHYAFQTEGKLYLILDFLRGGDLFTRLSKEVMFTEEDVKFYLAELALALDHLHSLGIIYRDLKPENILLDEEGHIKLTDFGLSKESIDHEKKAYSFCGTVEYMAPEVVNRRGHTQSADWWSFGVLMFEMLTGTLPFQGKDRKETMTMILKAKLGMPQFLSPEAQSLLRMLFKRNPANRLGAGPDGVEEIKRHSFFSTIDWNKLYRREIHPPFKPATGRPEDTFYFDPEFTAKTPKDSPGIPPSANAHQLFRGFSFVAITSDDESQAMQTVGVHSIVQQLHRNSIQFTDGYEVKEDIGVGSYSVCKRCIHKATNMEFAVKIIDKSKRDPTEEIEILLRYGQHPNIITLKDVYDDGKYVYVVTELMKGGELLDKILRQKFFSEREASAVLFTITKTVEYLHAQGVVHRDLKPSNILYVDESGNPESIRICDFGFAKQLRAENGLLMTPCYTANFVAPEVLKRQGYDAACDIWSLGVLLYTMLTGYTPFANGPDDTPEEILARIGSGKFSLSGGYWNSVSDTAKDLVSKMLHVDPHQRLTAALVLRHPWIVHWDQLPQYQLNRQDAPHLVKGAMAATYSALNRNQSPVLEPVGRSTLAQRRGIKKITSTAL

[4] = tested on: HeLa cells with doxycycline-inducible PKCε; assay: Invasion of HeLa cells through a reconstituted basement membrane matrix; type: cell-based; details: PKCε induced with doxycycline, Figure 6C
Description: Figure 6 Compound 8 inhibits MARCKS phosphorylation, cell proliferation, and invasion following treatment with 8. (A) HeLa cells were starved for 16 h in medium without fetal calf serum. Subsequently, they were treated with 50 μM solution of compound 8 for 30 min and 100 nM TPA for the last 10 min. An amount of 150 μg of protein from lysed cells was loaded onto SDS 8–16% gels. Tubulin was used as loading control. Below a representative blot, a bar graph corresponding to quantitative scans of three independent experiments (±SD) is shown. (B) Cell proliferation following treatment of HeLa and PC-3 cells with 8. The mean values (±SD) of three independent experiments, in which three samples were taken within each experiment, are shown. (C) Invasion of cells through a membrane. Cell invasion was determined as described in Experimental Section. In HeLa cells with a doxycycline-inducible PKCε the expression of PKCε was induced with doxycycline (control + Dox). The mean of three experiments (±SD) is shown: (∗) p = 0.03. The data are normalized to the control (100%). Therefore, the standard deviation for the control is 0.
For cell migration and motility, a scratch migration assay described by Cha et al.[41] was employed. […] Invasion of HeLa cells through a reconstituted basement membrane matrix was determined with a cell invasion assay kit from Chemicon (no. ECM550) as described by the manufacturer.

[5] = tested on: HeLa cells containing a doxycycline-inducible constitutively active PKCε; assay: Scratch migration assay; type: cell-based; details: 25 μM, 24 h, doxycycline 2 μg/mL
Description: For cell migration and motility, a scratch migration assay described by Cha et al.[41] was employed. In a tissue culture dish, with logarithmically growing HeLa cells containing a doxycycline-inducible constitutively active PKCε, a migration gap of approximately 1 mm was created by introducing a “scratch” to the adherent layer of cultured cells using a sterile Gilson 200 μL pipet tip. The scratch was administered by hand with sufficient pressure to remove adherent cells from the polystyrene substrate but without causing physical damage to the polystyrene surface. The dish was washed with PBS to remove the cells and further incubated with 2 μg/mL doxycycline and 25 μM 8 for 24 h. Controls were left either untreated or were incubated with 2 μg/mL doxycycline and DMSO. […] Invasion of HeLa cells through a reconstituted basement membrane matrix was determined with a cell invasion assay kit from Chemicon (no. ECM550) as described by the manufacturer.

[6] = biological target: T1, PKCβII/RACK1 interaction (Homo sapiens, UniProt P63244); assay: PKCβII/RACK1 in vitro binding assay; details: Figure 2B
T1 construct: 6-His
Description: This assay was similar to the PKCε/RACK2 binding assay described above. 6-his-tagged RACK1 was cloned into a pET-30a(+) vector (Novagen, Merck KGaA, Darmstadt, Germany) and purified with Ni-NTA agarose (Qiagen, Hilden, Germany). Final elution was performed with 500 nM imidazole in elution buffer (20 mM Tris-HCl/300 mM NaCl, 20% glycerol, pH 7.5). The integrity of purified recombinant protein was analyzed by Coomassie Blue staining and Western blotting. Then 200 ng RACK1 was coated onto 96-well EIA/RIA high binding plates (Costar, Corning, New York, NY) at 4 °C on a shaker with gentle agitation overnight. Compound 8 was added at room temperature for 30 min. Then 500 ng of recombinant GST-tagged PKCβII (ProQinase) was activated with CaCl2, phosphatidylserine, and TPA for 10 min. The RACK1-coated plates with and without 8 were incubated for 1 h with activated PKCβII. The interaction was determined with a primary rabbit anti-GST antibody (Santa Cruz) and corresponding HRP-conjugated goat anti-rabbit HRP conjugated secondary antibody (Santa Cruz) as described above for the PKCε/RACK2 interaction.

RSK2 activity, % of control [3]: 27 % of control | Prevention of the PKCβII/RACK1 interaction [6]: does not prevent
Structure (SMILES): CC(=O)c1cccc(NC(=O)c2sc3nc4cc5c(cc4cc3c2N)OCCO5)c1 [Compound 8, N-(3-acetylphenyl)-9-amino-2,3-dihydro-1,4-dioxino[2,3-g]thieno[2,3-b]quinoline-8-carboxamide]
Effect on kinases in a screen of 109 kinases [1]: not or only slightly affected | Inhibition of cell proliferation [2]: did not show any inhibition | Invasion of cells through an extracellular matrix [4]: inhibited | PKCε-induced migration of cells into a gap [5]: inhibited
